The values that follow come from patent US6432976B1, “8-aza-bicyclo[3.2.1]octane NMDA/NR2B antagonists” (Merck & Co., Inc., priority 1999, dated 2002).

Where a name gives a salt, the structure may show the parent alone.

The molecule `OC1C(Cc2ccccc2)CC2CCC1N2Cc1nc2ccccc2[nH]1` (racemic) yielded a melting point of 208 to 209 °C.
As for `COC1C(Cc2ccccc2)CC2CCC1N2Cc1nc2ccccc2[nH]1` (racemic), the figure is 172 to 173 °C; as for `OC1C(Cc2ccccc2)CC2CCC1N2Cc1nc2ccccc2[nH]1` (racemic) (as salt: hydrochloride), 234 to 236 °C; as for `COC1C(Cc2ccccc2)CC2CCC1N2Cc1nc2ccccc2[nH]1` (racemic) (as salt: hydrochloride), 222 to 226 °C.
